Tests used:
Plasmodium falciparum [1] = assay: Antiplasmodial activity against chloroquine-resistant Plasmodium falciparum W2 assessed as inhibition of parasite growth incubated for 48 hrs by SYBR green 1 dye based fluorescence assay; assay type: functional, organism-based
Plasmodium falciparum [2] = assay: Antiplasmodial activity against chloroquine-sensitive Plasmodium falciparum 3D7 assessed as inhibition of parasite growth incubated for 48 hrs by SYBR green 1 dye based fluorescence assay; assay type: functional, organism-based
HEK293 [3] = assay: Cytotoxicity against human HEK293 cells assessed as reduction in cell viability at 50,000 ug/L incubated for 24 hrs by MTT assay; assay type: cell-based; conditions: hek293, 24 h
HEK293 [4] = assay: Cytotoxicity against human HEK293 cells assessed as reduction in cell viability up to 500 ug/L incubated for 24 hrs by MTT assay; assay type: cell-based; conditions: hek293, 24 h
[5] = Plasmodium falciparum, W2, 48 h
[6] = Plasmodium falciparum, 3D7, 48 h

Row | SMILES | IC50 (Plasmodium falciparum [1]; [5]) [µM] | IC50 (Plasmodium falciparum [2]; [6]) [µM] | Activity (HEK293 [3]) | Activity (HEK293 [4]) | IC50 (Plasmodium falciparum [1]) [µM] | IC50 (Plasmodium falciparum [2]) [µM]
1 | CC(=O)OC[C@H]1O[C@@H](OCCCn2cc(COCC(COCc3cn(CCCO[C@@H]4O[C@H](COC(C)=O)[C@@H](O)[C@H](O)[C@H]4O[C@@H]4O[C@@H](C)[C@H](OC(C)=O)[C@@H](OC(C)=O)[C@H]4OC(C)=O)nn3)(COCc3cn(CCCO[C@@H]4O[C@H](COC(C)=O)[C@@H](O)[C@H](O)[C@H]4O[C@@H]4O[C@@H](C)[C@H](OC(C)=O)[C@@H](OC(C)=O)[C@H]4OC(C)=O)nn3)COCc3cn(CCCO[C@@H]4O[C@H](COC(C)=O)[C@@H](O)[C@H](O)[C@H]4O[C@@H]4O[C@@H](C)[C@H](OC(C)=O)[C@@H](OC(C)=O)[C@H]4OC(C)=O)nn3)nn2)[C@H](O[C@@H]2O[C@@H](C)[C@H](OC(C)=O)[C@@H](OC(C)=O)[C@H]2OC(C)=O)[C@@H](O)[C@@H]1O | 25.2 | 28.1 |  |  |  | 
2 | CCN(CC)CCCC(C)Nc1ccnc2cc(Cl)ccc12 (configuration not stated) [CHLOROQUINE] |  |  | Toxic | Non-Toxic |  | 
3 | CC(=O)OC[C@H]1O[C@@H](OCCCn2cc(COCCOCc3cn(CCCO[C@@H]4O[C@H](COC(C)=O)[C@@H](O)[C@H](O)[C@H]4O[C@@H]4O[C@@H](C)[C@H](OC(C)=O)[C@@H](OC(C)=O)[C@H]4OC(C)=O)nn3)nn2)[C@H](O[C@@H]2O[C@@H](C)[C@H](OC(C)=O)[C@@H](OC(C)=O)[C@H]2OC(C)=O)[C@@H](O)[C@@H]1O | 37.1 | 41.6 |  |  |  | 
4 | CC(=O)OC[C@H]1O[C@@H](OCCCN=[N+]=[N-])[C@H](O[C@@H]2O[C@@H](C)[C@H](OC(C)=O)[C@@H](OC(C)=O)[C@H]2OC(C)=O)[C@@H](O)[C@@H]1O | 41.9 | 58.7 | Non-Toxic | Non-Toxic |  | 
5 | CO[C@@H]1O[C@H](COC(C)=O)[C@@H](O)[C@H](O)[C@H]1O[C@@H]1O[C@@H](C)[C@H](OC(C)=O)[C@@H](OC(C)=O)[C@H]1OC(C)=O | 100 | 143 |  |  |  | 
6 | CCCCCCCCCCCCCCCCO[C@@H]1O[C@H](COC(C)=O)[C@@H](O)[C@H](O)[C@H]1O[C@@H]1O[C@@H](C)[C@H](OC(C)=O)[C@@H](OC(C)=O)[C@H]1OC(C)=O | 17.3 | 24.6 | Toxic | Non-Toxic |  | 
7 | CC(=O)OC[C@H]1O[C@@H](OCCCn2cc(COc3cc(OCc4cnnn4CCCO[C@@H]4O[C@H](COC(C)=O)[C@@H](O)[C@H](O)[C@H]4O[C@@H]4O[C@@H](C)[C@H](OC(C)=O)[C@@H](OC(C)=O)[C@H]4OC(C)=O)cc(OCc4cnnn4CCCO[C@@H]4O[C@H](COC(C)=O)[C@@H](O)[C@H](O)[C@H]4O[C@@H]4O[C@@H](C)[C@H](OC(C)=O)[C@@H](OC(C)=O)[C@H]4OC(C)=O)c3)nn2)[C@H](O[C@@H]2O[C@@H](C)[C@H](OC(C)=O)[C@@H](OC(C)=O)[C@H]2OC(C)=O)[C@@H](O)[C@@H]1O | 23.6 | 41.1 |  |  |  | 
8 | CC(=O)OC[C@H]1O[C@@H](OCCCn2cc(COC[C@H]3O[C@@H](O[C@H]4[C@H](OCc5cn(CCCO[C@@H]6O[C@H](COC(C)=O)[C@@H](O)[C@H](O)[C@H]6O[C@@H]6O[C@@H](C)[C@H](OC(C)=O)[C@@H](OC(C)=O)[C@H]6OC(C)=O)nn5)[C@@H](OCc5cnnn5CCCO[C@@H]5O[C@H](COC(C)=O)[C@@H](O)[C@H](O)[C@H]5O[C@@H]5O[C@@H](C)[C@H](OC(C)=O)[C@@H](OC(C)=O)[C@H]5OC(C)=O)[C@H](OCc5cn(CCCO[C@@H]6O[C@H](COC(C)=O)[C@@H](O)[C@H](O)[C@H]6O[C@@H]6O[C@@H](C)[C@H](OC(C)=O)[C@@H](OC(C)=O)[C@H]6OC(C)=O)nn5)O[C@@H]4COCc4cn(CCCO[C@@H]5O[C@H](COC(C)=O)[C@@H](O)[C@H](O)[C@H]5O[C@@H]5O[C@@H](C)[C@H](OC(C)=O)[C@@H](OC(C)=O)[C@H]5OC(C)=O)nn4)[C@H](OCc4cnnn4CCCO[C@@H]4O[C@H](COC(C)=O)[C@@H](O)[C@H](O)[C@H]4O[C@@H]4O[C@@H](C)[C@H](OC(C)=O)[C@@H](OC(C)=O)[C@H]4OC(C)=O)[C@@H](OCc4cn(CCCO[C@@H]5O[C@H](COC(C)=O)[C@@H](O)[C@H](O)[C@H]5O[C@@H]5O[C@@H](C)[C@H](OC(C)=O)[C@@H](OC(C)=O)[C@H]5OC(C)=O)nn4)[C@H]3OCc3cnnn3CCCO[C@@H]3O[C@H](COC(C)=O)[C@@H](O)[C@H](O)[C@H]3O[C@@H]3O[C@@H](C)[C@H](OC(C)=O)[C@@H](OC(C)=O)[C@H]3OC(C)=O)nn2)[C@H](O[C@@H]2O[C@@H](C)[C@H](OC(C)=O)[C@@H](OC(C)=O)[C@H]2OC(C)=O)[C@@H](O)[C@@H]1O |  |  |  |  | 12.6 | 28.4
9 | CC(=O)OC[C@H]1O[C@@H](OCCCn2cc(COC[C@H]3O[C@@H](OCc4cn(CCCO[C@@H]5O[C@H](COC(C)=O)[C@@H](O)[C@H](O)[C@H]5O[C@@H]5O[C@@H](C)[C@H](OC(C)=O)[C@@H](OC(C)=O)[C@H]5OC(C)=O)nn4)[C@H](OCc4cnnn4CCCO[C@@H]4O[C@H](COC(C)=O)[C@@H](O)[C@H](O)[C@H]4O[C@@H]4O[C@@H](C)[C@H](OC(C)=O)[C@@H](OC(C)=O)[C@H]4OC(C)=O)[C@@H](OCc4cn(CCCO[C@@H]5O[C@H](COC(C)=O)[C@@H](O)[C@H](O)[C@H]5O[C@@H]5O[C@@H](C)[C@H](OC(C)=O)[C@@H](OC(C)=O)[C@H]5OC(C)=O)nn4)[C@H]3OCc3cn(CCCO[C@@H]4O[C@H](COC(C)=O)[C@@H](O)[C@H](O)[C@H]4O[C@@H]4O[C@@H](C)[C@H](OC(C)=O)[C@@H](OC(C)=O)[C@H]4OC(C)=O)nn3)nn2)[C@H](O[C@@H]2O[C@@H](C)[C@H](OC(C)=O)[C@@H](OC(C)=O)[C@H]2OC(C)=O)[C@@H](O)[C@@H]1O | 21.9 | 13 |  |  |  | 

— ChEMBL document CHEMBL4715746, “Polyvalent effect enhances diglycosidic antiplasmodial activity” (Eur J Med Chem, 2016)
